{"source": "patent US10202354B2", "about": "“Therapeutic compounds and uses thereof” (GENENTECH, INC., priority 2015, dated 2019)", "note": "pIC50: −log10 of the molar value."}
{"target": "Full length KDM2B (Homo sapiens (Human), UniProt Q8NHM5)", "sequence (Q8NHM5 whole entry)": "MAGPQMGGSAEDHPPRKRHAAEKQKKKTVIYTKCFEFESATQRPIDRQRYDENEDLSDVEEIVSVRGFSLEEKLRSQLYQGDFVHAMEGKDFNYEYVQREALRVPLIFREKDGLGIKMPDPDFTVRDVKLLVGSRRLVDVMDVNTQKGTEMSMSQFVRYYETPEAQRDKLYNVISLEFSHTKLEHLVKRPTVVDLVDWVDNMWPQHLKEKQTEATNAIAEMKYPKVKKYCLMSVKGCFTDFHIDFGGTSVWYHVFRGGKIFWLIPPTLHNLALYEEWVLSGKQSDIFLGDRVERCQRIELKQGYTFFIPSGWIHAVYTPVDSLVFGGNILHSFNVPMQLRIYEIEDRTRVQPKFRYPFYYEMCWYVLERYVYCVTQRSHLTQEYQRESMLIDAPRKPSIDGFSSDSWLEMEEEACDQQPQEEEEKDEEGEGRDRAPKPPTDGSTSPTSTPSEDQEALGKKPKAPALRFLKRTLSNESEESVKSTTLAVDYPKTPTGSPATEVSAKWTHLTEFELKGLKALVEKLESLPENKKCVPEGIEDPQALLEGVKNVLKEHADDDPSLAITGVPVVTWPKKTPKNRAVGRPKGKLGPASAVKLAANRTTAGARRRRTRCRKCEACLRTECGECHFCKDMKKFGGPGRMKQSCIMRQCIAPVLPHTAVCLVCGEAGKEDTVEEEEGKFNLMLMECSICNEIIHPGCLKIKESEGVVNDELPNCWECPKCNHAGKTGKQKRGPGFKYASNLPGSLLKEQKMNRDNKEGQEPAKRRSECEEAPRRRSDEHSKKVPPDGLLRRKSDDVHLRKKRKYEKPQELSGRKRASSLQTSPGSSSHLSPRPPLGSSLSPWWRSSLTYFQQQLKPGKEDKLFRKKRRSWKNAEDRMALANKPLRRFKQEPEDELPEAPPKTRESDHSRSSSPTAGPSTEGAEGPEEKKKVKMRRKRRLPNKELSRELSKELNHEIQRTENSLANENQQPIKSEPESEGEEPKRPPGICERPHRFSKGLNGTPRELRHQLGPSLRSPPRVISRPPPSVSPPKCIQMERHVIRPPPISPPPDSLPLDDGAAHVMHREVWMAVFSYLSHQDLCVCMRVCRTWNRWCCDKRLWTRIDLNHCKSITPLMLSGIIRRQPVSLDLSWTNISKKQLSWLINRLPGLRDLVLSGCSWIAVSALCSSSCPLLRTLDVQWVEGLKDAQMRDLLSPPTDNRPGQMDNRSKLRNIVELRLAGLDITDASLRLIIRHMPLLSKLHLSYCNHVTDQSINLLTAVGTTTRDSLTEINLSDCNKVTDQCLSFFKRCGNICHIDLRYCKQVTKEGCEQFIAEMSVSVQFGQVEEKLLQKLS", "experiment": "KDM2B TR-FRET Assay for Determining Inhibitor IC50", "format": "biochemical", "conditions": "TR-FRET (HTRF), biotin-H3K36me2 peptide substrate", "description": "KDM2B TR-FRET Assay for Determining Inhibitor IC50\nThe KDM2B TR-FRET Assay described above represents an additional embodiment of the invention."}
{"smiles": "O=S(=O)(c1ccc(-c2ccc(Cl)cc2)cc1)N1CCN=C1N1CCN(C2CCC2)CC1", "note": "[Example 23, 1-[1-[4-(4-chlorophenyl)phenyl]sulfonyl-4,5-dihydroimidazol-2-yl]-4-cyclobutyl-piperazine]", "pIC50": 9.56}
{"smiles": "O=S(=O)(c1ccc(-c2ccccc2)cc1)N1CCN=C1N1CCN(C2CCC2)CC1", "note": "[Example 14, 1-cyclobutyl-4-[1-(4-phenylphenyl)sulfonyl-4,5-dihydroimidazol-2-yl]piperazine]", "pIC50": 10.32}
{"smiles": "CCN1CCN(C2=NCCN2S(=O)(=O)c2ccc(C)cc2)CC1", "note": "[Example 117, 1-ethyl-4-[1-(p-tolylsulfonyl)-4,5-dihydroimidazol-2-yl]piperazine]", "pIC50": 8.43}
{"smiles": "CC(C)c1ccc(S(=O)(=O)N2C[C@@H](C)N=C2N2CCN(C3CCC3)CC2)cc1", "note": "[Example 46, (R)-1-cyclobutyl-4-[1-(4-isopropylphenyl)sulfonyl-4-methyl-4,5-dihydroimidazol-2-yl]piperazine]", "pIC50": 10.27}
{"smiles": "Cc1cccc(C(=O)N2CCN=C2N2CCN(C3CCC3)CC2)c1", "note": "[Example 85, [2-(4-cyclobutylpiperazin-1-yl)-4,5-dihydroimidazol-1-yl]-(m-tolyl)methanone]", "pIC50": 8.51}
{"smiles": "COc1ccc(C(=O)N2CCN=C2N2CCN(C3CCC3)CC2)cc1", "note": "[Example 89, [2-(4-cyclobutylpiperazin-1-yl)-4,5-dihydroimidazol-1-yl]-(4-methoxyphenyl)methanone]", "pIC50": 8.36}
{"smiles": "N#Cc1cccc(-c2ccc(S(=O)(=O)N3CCN=C3N3CCN(C4CCC4)CC3)cc2)c1", "note": "[Example 13]", "pIC50": 9.84}
{"smiles": "CC(C)c1ccc(S(=O)(=O)N2CC3(CCCC3)N=C2N2CCN(C3CCC3)CC2)cc1", "note": "[Example 45, 2-(4-cyclobutylpiperazin-1-yl)-3-(4-isopropylphenyl)sulfonyl-1,3-diazaspiro[4.4]non-1-ene]", "pIC50": 10.31}
{"smiles": "O=S(=O)(c1ccc(-c2ccc(C(F)(F)F)cc2)cc1)N1CCN=C1N1CCN(C2CCC2)CC1", "note": "[Example 12, 1-cyclobutyl-4-[1-[4-[4-(trifluoromethyl)phenyl]phenyl]sulfonyl-4,5-dihydroimidazol-2-yl]piperazine]", "pIC50": 9.42}
{"smiles": "CCN1CCN(C2=NCCN2S(=O)(=O)c2cccc(Cl)c2)CC1", "note": "[Example 113, 1-[1-(3-chlorophenyl)sulfonyl-4,5-dihydroimidazol-2-yl]-4-ethyl-piperazine]", "pIC50": 8.04}
{"smiles": "CCN1CCN(C2=NCCN2S(=O)(=O)c2cccc(C(F)(F)F)c2)CC1", "note": "[Example 103, 1-ethyl-4-[1-[3-(trifluoromethyl)phenyl]sulfonyl-4,5-dihydroimidazol-2-yl]piperazine]", "pIC50": 8.16}
{"smiles": "CCN1CCN(C2=NCCN2S(=O)(=O)c2ccc(Cl)cc2Cl)CC1", "note": "[Example 100, 1-[1-(2,4-dichlorophenyl)sulfonyl-4,5-dihydroimidazol-2-yl]-4-ethyl-piperazine]", "pIC50": 8.55}
{"smiles": "Cc1ccccc1C(=O)N1CCN=C1N1CCN(C2CCC2)CC1", "note": "[Example 83, [2-(4-cyclobutylpiperazin-1-yl)-4,5-dihydroimidazol-1-yl]-(o-tolyl)methanone]", "pIC50": 8.51}
{"smiles": "CCN1CCN(C2=NCCN2S(=O)(=O)c2ccccc2OC)CC1", "note": "[Example 111, 1-ethyl-4-[1-(2-methoxyphenyl)sulfonyl-4,5-dihydroimidazol-2-yl]piperazine]", "pIC50": 7.88}
{"smiles": "O=S(=O)(c1cc(Cl)cc(Cl)c1)N1CCN=C1N1CCN(C2CCC2)CC1", "note": "[Example 62, 1-cyclobutyl-4-[1-(3,5-dichlorophenyl)sulfonyl-4,5-dihydroimidazol-2-yl]piperazine]", "pIC50": 9.51}
{"smiles": "CCN1CCN(C2=NCCN2S(=O)(=O)c2c(F)cccc2F)CC1", "note": "[Example 108, 1-[1-(2,6-difluorophenyl)sulfonyl-4,5-dihydroimidazol-2-yl]-4-ethyl-piperazine]", "pIC50": 7.89}
{"smiles": "CCN1CCN(C2=NCCN2S(=O)(=O)c2cccc(OC)c2)CC1", "note": "[Example 115, 1-ethyl-4-[1-(3-methoxyphenyl)sulfonyl-4,5-dihydroimidazol-2-yl]piperazine]", "pIC50": 8.45}
{"smiles": "O=S(=O)(c1ccc(-c2ccccc2Cl)cc1)N1CCN=C1N1CCN(C2CCC2)CC1", "note": "[Example 21, 1-[1-[4-(2-chlorophenyl)phenyl]sulfonyl-4,5-dihydroimidazol-2-yl]-4-cyclobutyl-piperazine]", "pIC50": 10.08}
{"smiles": "Cc1cccc(S(=O)(=O)N2CCN=C2N2CCN(C3CCC3)CC2)c1", "note": "[Example 59, 1-cyclobutyl-4-[1-(m-tolylsulfonyl)-4,5-dihydroimidazol-2-yl]piperazine]", "pIC50": 9.84}
{"smiles": "CC1CCC(N2CCN(C3=NCCN3S(=O)(=O)c3ccc(C(C)C)cc3)CC2)C1", "note": "(centres unmarked) [Example 94, 1-[1-(4-isopropylphenyl)sulfonyl-4,5-dihydroimidazol-2-yl]-4-(3-methylcyclopentyl)piperazine]", "pIC50": 8.85}
{"smiles": "CCN1CCN(C2=NCCN2S(=O)(=O)c2ccc3ccccc3c2)CC1", "note": "[Example 110, 1-ethyl-4-[1-(2-naphthylsulfonyl)-4,5-dihydroimidazol-2-yl]piperazine]", "pIC50": 9.00}
{"smiles": "CCN1CCN(C2=NCCN2S(=O)(=O)c2cc(Cl)ccc2Cl)CC1", "note": "[Example 106, 1-[1-(2,5-dichlorophenyl)sulfonyl-4,5-dihydroimidazol-2-yl]-4-ethyl-piperazine]", "pIC50": 8.45}
{"smiles": "O=S(=O)(c1ccc2c(c1)CCCC2)N1CCN=C1N1CCN(C2CCC2)CC1", "note": "[Example 32, 1-cyclobutyl-4-(1-tetralin-6-ylsulfonyl-4,5-dihydroimidazol-2-yl)piperazine]", "pIC50": 10.80}
{"smiles": "CC(C)c1ccc(S(=O)(=O)N2CCN=C2N2CCN(CC3CC3C)CC2)cc1", "note": "(centres unmarked) [Example 38, 1-[1-(4-isopropylphenyl)sulfonyl-4,5-dihydroimidazol-2-yl]-4-[(2-methylcyclopropyl)methyl]piperazine]", "pIC50": 9.31}
{"smiles": "Cc1ccccc1-c1ccc(S(=O)(=O)N2CCN=C2N2CCN(C3CCC3)CC2)cc1", "note": "[Example 8, 1-cyclobutyl-4-[1-[4-(o-tolyl)phenyl]sulfonyl-4,5-dihydroimidazol-2-yl]piperazine]", "pIC50": 10.11}
{"smiles": "CCN1CCN(C2=NCCN2S(=O)(=O)c2ccc(OC(F)(F)F)cc2)CC1", "note": "[Example 102, 1-ethyl-4-[1-[4-(trifluoromethoxy)phenyl]sulfonyl-4,5-dihydroimidazol-2-yl]piperazine]", "pIC50": 8.78}
{"smiles": "CC(=O)Nc1ccc(S(=O)(=O)N2CCN=C2N2CCN(C3CCC3)CC2)cc1Cl", "note": "[Example 81, N-[2-chloro-4-[[2-(4-cyclobutylpiperazin-1-yl)-4,5-dihydroimidazol-1-yl]sulfonyl]phenyl]acetamide]", "pIC50": 9.90}
{"smiles": "O=S(=O)(c1cccc2nonc12)N1CCN=C1N1CCN(C2CCC2)CC1", "note": "[Example 64, 4-[[2-(4-cyclobutylpiperazin-1-yl)-4,5-dihydroimidazol-1-yl]sulfonyl]-2,1,3-benzoxadiazole]", "pIC50": 9.30}
{"smiles": "COc1cccc(C(=O)N2CCN=C2N2CCN(C3CCC3)CC2)c1", "note": "[Example 90, [2-(4-cyclobutylpiperazin-1-yl)-4,5-dihydroimidazol-1-yl]-(3-methoxyphenyl)methanone]", "pIC50": 8.64}
{"smiles": "CCN1CCN(C2=N[C@H](C)CN2S(=O)(=O)c2ccc(C(C)C)cc2)CC1", "note": "[Example 43, (R)-1-ethyl-4-[1-(4-isopropylphenyl)sulfonyl-4-methyl-4,5-dihydroimidazol-2-yl]piperazine]", "pIC50": 8.06}
{"smiles": "CC(C)c1ccc(S(=O)(=O)N2C[C@@H](C3CC3)N=C2N2CCN(C3CCC3)CC2)cc1", "note": "[Example 41, (R)-1-cyclobutyl-4-(4-cyclopropyl-1-((4-isopropylphenyl)sulfonyl)-4,5-dihydro-1H-imidazol-2-yl)piperazine]", "pIC50": 10.41}
{"smiles": "CC(C)c1ccc(S(=O)(=O)N2CCN=C2N2CCN(C3CC(F)C3)CC2)cc1", "note": "(centres unmarked) [Example 40, 1-(3-fluorocyclobutyl)-4-[1-(4-isopropylphenyl)sulfonyl-4,5-dihydroimidazol-2-yl]piperazine]", "pIC50": 9.41}
{"smiles": "CCN1CCN(C2=NCCN2S(=O)(=O)c2cccc3nonc23)CC1", "note": "[Example 120, 4-[[2-(4-ethylpiperazin-1-yl)-4,5-dihydroimidazol-1-yl]sulfonyl]-2,1,3-benzoxadiazole]", "pIC50": 7.88}
{"smiles": "CCN1CCN(C2=NCCN2S(=O)(=O)c2cccc(OC(F)(F)F)c2)CC1", "note": "[Example 99, 1-ethyl-4-[1-[3-(trifluoromethoxy)phenyl]sulfonyl-4,5-dihydroimidazol-2-yl]piperazine]", "pIC50": 8.21}
{"smiles": "CCN1CCN(C2=NCCN2S(=O)(=O)c2ccccc2C#N)CC1", "note": "[Example 112, 2-[[2-(4-ethylpiperazin-1-yl)-4,5-dihydroimidazol-1-yl]sulfonyl]benzonitrile]", "pIC50": 8.01}
{"smiles": "O=S(=O)(c1ccc(-c2cccc(Cl)c2)cc1)N1CCN=C1N1CCN(C2CCC2)CC1", "note": "[Example 22, 1-[1-[4-(3-chlorophenyl)phenyl]sulfonyl-4,5-dihydroimidazol-2-yl]-4-cyclobutyl-piperazine]", "pIC50": 9.92}
{"smiles": "CC(C)c1ccc(S(=O)(=O)N2C[C@H](C)N=C2N2CCN(C3CCC3)CC2)cc1", "note": "[Example 47, (S)-1-cyclobutyl-4-[1-(4-isopropylphenyl)sulfonyl-4-methyl-4,5-dihydroimidazol-2-yl]piperazine]", "pIC50": 9.94}
{"smiles": "COc1ccc(-c2ccc(S(=O)(=O)N3CCN=C3N3CCN(C4CCC4)CC3)cc2)cc1", "note": "[Example 3, 1-cyclobutyl-4-[1-[4-(4-methoxyphenyl)phenyl]sulfonyl-4,5-dihydroimidazol-2-yl]piperazine]", "pIC50": 10.10}
{"smiles": "CC(C)c1ccc(S(=O)(=O)N2CCN=C2N2CCN(C3CCC3)CC2)cc1", "note": "[Example 31, 1-cyclobutyl-4-(1-((4-isopropylphenyl)sulfonyl)-4,5-dihydro-1H-imidazol-2-yl)piperazine]", "pIC50": 10.37}
{"smiles": "CC(C)c1ccc(S(=O)(=O)N2CCN=C2N2CCC(N3CCOCC3)CC2)cc1", "note": "[Example 49, 4-[1-[1-(4-isopropylphenyl)sulfonyl-4,5-dihydroimidazol-2-yl]-4-piperidyl]morpholine]", "pIC50": 8.37}
{"smiles": "CCN1CCN(C2=NCCN2S(=O)(=O)c2ccc(F)cc2F)CC1", "note": "[Example 109, 1-[1-(2,4-difluorophenyl)sulfonyl-4,5-dihydroimidazol-2-yl]-4-ethyl-piperazine]", "pIC50": 8.20}
